According to patent publication US11746115B2, “Solid forms of 7-[[(1S)-1-[4-[(1S)-2-cyclopropyl-1-(4-prop-2-enoylpiperazin-1-yl)ethyl]phenyl]ethyl]amino]-1-ethyl-4H-pyrimido[4,5-d][1,3]oxazin-2-one” (Eli Lilly and Company, priority 2021, dated 2023):

Legend:
[1] = Preclinical solubility studies of Compound A; type: physicochemical; conditions: certain preclinical studies
[2] = Non-sink dissolution (microcentrifuge assay, pH 2 then FaSSIF pH 6.5); type: physicochemical; conditions: after FaSSIF pH 6.5 transfer
Method: Non-sink dissolution is performed by adding the test composition to a solution of 0.01 N HCl pH 2 (e.g., in a centrifuge tube) and analyzing for 7-[[(1S)-1-[4-[(1S)-2-cyclopropyl-1-(4-prop-2-enoylpiperazin-1-yl)ethyl]phenyl]ethyl]amino]-1-ethyl-4H-pyrimido[4,5-d][1,3]oxazin-2-one solution concentration, by HPLC, at approximately time zero, 20 and 40 minutes. After approximately 40 minutes, a solution of fasted state simulated intestinal fluid (FaSSIF) pH 6.5, with 0.224 wt % bile salts, is added to the pH 2 solution. The 7-[[(1S)-1-[4-[(1S)-2-cyclopropyl-1-(4-prop-2-enoylpiperazin-1-yl)ethyl]phenyl]ethyl]amino]-1-ethyl-4H-pyrimido[4,5-d][1,3]oxazin-2-one concentration is monitored, by HPLC, at approximately 50, 70, 90 and 120 minutes after time zero. At each timepoint the samples are centrifuged at 18,500 g-force for 3 minutes to remove undissolved solids from the sample. For analysis, a supernatant sample (100 μL) is diluted 5× using 1:1 acetonitrile/H2O and analyzed. The non-sink dissolution test is completed at room temperature.

| SMILES | solubility, acidic versus neutral environment [1] | solution concentration at the 70 minute timepoint at elevated pH as compared to TC1 [2] |
| --- | --- | --- |
| C=CC(=O)N1CCN([C@@H](CC2CC2)c2ccc([C@H](C)Nc3ncc4c(n3)N(CC)C(=O)OC4)cc2)CC1 [TC1, 7-[[(1S)-1-[4-[(1S)-2-cyclopropyl-1-(4-prop-2-enoylpiperazin-1-yl)ethyl]phenyl]ethyl]amino]-1-ethyl-4H-pyrimido[4,5-d][1,3]oxazin-2-one] | more soluble in an acidic environment than a neutral one | – |
| C=CC(=O)N1CCN([C@@H](CC2CC2)c2ccc([C@H](C)Nc3ncc4c(n3)N(CC)C(=O)OC4)cc2)CC1 [TC2, 7-[[(1S)-1-[4-[(1S)-2-cyclopropyl-1-(4-prop-2-enoylpiperazin-1-yl)ethyl]phenyl]ethyl]amino]-1-ethyl-4H-pyrimido[4,5-d][1,3]oxazin-2-one, 2,5-dihydroxybenzoic acid (1:2)] | – | increased solution concentration |
